The values that follow come from ChEMBL document CHEMBL4000216, “Lignan derivatives from Selaginella tamariscina and their nitric oxide inhibitory effects in LPS-stimulated RAW 264.7 cells” (Bioorg Med Chem Lett, 2017).

The test system of data set [1] is RAW264.7. The data set is described as follows: Inhibition of LPS-induced NO production in mouse RAW264.7 cells preincubated for 1 hr followed by LPS stimulation for 24 hrs by Griess assay. It is filed as functional, cell-based. For orientation: Nitrite, measured by Griess reagent, commonly stands in for NO production.
The test system of data set [2] is RAW264.7. In words: Cytotoxicity against mouse RAW264.7 cells assessed as reduction in cell viability at 3 to 60 uM after 24 hrs by MTT assay. It is filed as cell-based. The following applies: raw264.7, 24 h. For orientation: Formazan colour is commonly taken as a measure of viable cells.
In data set [3] the test system is RAW264.7. The data set is described as follows: Inhibition of LPS-induced NO production in mouse RAW264.7 cells at 3 to 60 uM preincubated for 1 hr followed by LPS stimulation for 24 hrs by Griess assay. It is filed as functional, cell-based.

The source made the active and inactive calls. The calls are words filed in the database; no cut-off is given here.

Regarding `COc1cc([C@@H]2Oc3c(OC)cc(C(C)=O)cc3[C@H]2CO[C@@H]2O[C@H](CO)[C@@H](O)[C@H](O)[C@H]2O)cc(OC)c1O`, 55.8 µM corresponded to half-maximal inhibition in the data set with RAW264.7 [1] (IC50). Further, in the data set on RAW264.7 [2], the Activity result is listed as “Non-Toxic”.

In the case of `COc1cc([C@@H]2Oc3c(OC)cc(C(C)=O)cc3[C@H]2CO)cc(OC)c1O[C@@H]1O[C@H](CO[C@@H]2O[C@H](CO)[C@@H](O)[C@H](O)[C@H]2O)[C@@H](O)[C@H](O)[C@H]1O`, the Activity entry in the data set with RAW264.7 [2] was “Non-Toxic”. Further, in the data set on RAW264.7 [3], the inhibition entry was “inactive”.

Take `O=C1/C(=C/c2ccc(O)c(O)c2)COc2cc(O)ccc21` [SAPPANONE A]: the IC50 (usually the midpoint of a concentration-inhibition curve) with RAW264.7 [1] came to 9.3 µM.

`COc1cc(C[C@@H](CO[C@@H]2O[C@H](CO)[C@@H](O)[C@H](O)[C@H]2O)c2cc(C(C)=O)cc(OC)c2O)cc(OC)c1O` came in with an IC50 in the data set on RAW264.7 [1] of 40.9 µM. Moreover, the Activity entry in the data set with RAW264.7 [2] is on record as “Non-Toxic”.

Regarding `COc1cc([C@H]2OC[C@H]3[C@@H]2CO[C@@H]3c2cc(OC)c(O[C@@H]3O[C@H](CO)[C@@H](O)[C@H](O)[C@H]3O)c(OC)c2)cc(OC)c1O[C@@H]1O[C@H](CO)[C@@H](O)[C@H](O)[C@H]1O` [LIRIODENDRIN], the Activity entry in the data set on RAW264.7 [2] is listed as “Non-Toxic”. In the data set on RAW264.7 [3], the inhibition entry is “inactive”.

In turn, `COc1cc([C@@H]2Oc3c(OC)cc(C(C)=O)cc3[C@H]2CO)cc(OC)c1O` showed an IC50 with RAW264.7 [1] of 32.3 µM. Also, the Activity entry in the data set with RAW264.7 [2] was “Non-Toxic”.

As for `COc1cc([C@@H]2Oc3c(OC)cc(C(C)=O)cc3[C@H]2CO)cc(OC)c1O[C@@H]1O[C@H](CO)[C@@H](O)[C@H](O)[C@H]1O`, in the data set with RAW264.7 [1], the IC50 is 32.4 µM. Moreover, in the data set with RAW264.7 [2], the Activity result is given as “Non-Toxic”.
